# Data: patent US9968603B2, “Systems for sustained intraocular delivery of low solubility compounds from a port delivery system implant” (ForSight Vision4, Inc., priority 2013, dated 2018)
# Structures can show the parent of a compound that is named as a salt. Where two headings read alike, the source gives them in different places.
# Key:
# Aqueous solubility = format: physicochemical
# [1] = Formulations with amphiphilic agents and non-aqueous solvents (no complexing agent), concentration dissolved; format: physicochemical; details: neat PEG 300
# [2] = Formulation (solubility) screening with cyclodextrins, concentrations achieved; format: physicochemical; details: for SBE-β-CD [CAPTISOL] Formulations (CD Excess), concentration: CD excess: Pazopanib 20 (5x), 50 (2.5x), 80 (2.5x), Sunitinib 2.5x, 4x, Axitinib 6x, Linifanib 8x, Motesanib 2x; for Expected Concentration Achieved: achieved vs expected formulation concentration
# Experimental: For example, solid therapeutic agents are mixed in an aqueous solution with cyclodextrin, buffering agent, and/or other formulation agents of the current invention. The pH of the resulting mixture is adjusted with a base, for example, NaOH, or an acid, for example, citric acid. The mixture is then filtered, and the resulting filtered solution is used to fill the PDS.
# A solubility screening of the therapeutic agent of the invention was carried out during the pre-formulation stage. For example, the solubility of the therapeutic agents in acids, cyclodextrin (CD) (e.g., SBEβCD (CAPTISOL®), HPβCD, HPγCD), hydrophilic stabilizing agents (e.g., PVP), and buffering agents (e.g., citric acid, histidine) were explored. Systematic formulation screening may include determination of CD:therapeutic agent ratio, pH, therapeutic agent concentration, and agents.
# For example, in the formulation process with complexing agents such as cyclodextrins, a vial of solid therapeutic agent was mixed with a vial containing a solution of CD, acid, and agents in water. The pH of the resulting mixture was adjusted by NaOH. The mixture was then be filtered, and the resulting filtered solution was used to fill the PDS device or used to determine its stability.
# [3] = Viscosity and water content of cyclodextrin formulations; format: physicochemical; details: 80 mg/mL Pazopanib
# [4] = Diffusion coefficient from Release Rate Index and single exponential model, compared with Stokes-Einstein prediction; details: 21 mg/mL Sunitinib, 2.5:1 molar ratio HPβCD
# Experimental: The measured diffusion coefficient was compared to the diffusion coefficient predicted (using Stokes-Einstein equation to correct for MW (via volume of diffusing species) and temperature (via temperature dependence of the viscosity of water)) for a molecule of that molecular weight.
# The rate was assessed by using the measured Release Rate Index (RRI) and volume for a particular device and using the single exponential diffusion model to determine a measured diffusion coefficient for a particular formulation and device combination. The measured diffusion coefficient was compared to the diffusion coefficient predicted (using Stokes-Einstein equation to correct for MW (via volume of diffusing species) and temperature (via temperature dependence of the viscosity of water)) for a molecule of that molecular weight.
smiles,measurement,setting,value
"CNC(=O)c1ccccc1Sc1ccc2c(/C=C/c3ccccn3)n[nH]c2c1 [Axitinib, N-Methyl-2-((3-((1E)-2-(pyridin-2-yl)ethenyl)-1H-indazol-6-yl)sulfanyl)benzamide]",solubility,"Aqueous solubility; PBS, aqueous buffer, read-out: solubility in PBS",0.3 µg/mL
"Cc1ccc(F)c(NC(=O)Nc2ccc(-c3cccc4[nH]nc(N)c34)cc2)c1 [Linifanib, N-[4-(3-Amino-1H-indazol-4-yl)phenyl]-N′-(2-fluoro-5-methylphenyl)urea]",concentration formulated,[1],20000 µg/mL
same,"SBE-β-CD [CAPTISOL] Formulations (CD Excess), concentration",[2],6 mg/mL
same,Expected Concentration Achieved,[2],No
"CC1(C)CNc2cc(NC(=O)c3cccnc3NCc3ccncc3)ccc21 [Motesanib, N-(2,3-Dihydro-3,3-dimethyl-1H-indol-6-yl)-2-[(4-pyridinylmethyl)amino]-3-pyridinecarboxamide]","SBE-β-CD [CAPTISOL] Formulations (CD Excess), concentration",[2],30 mg/mL
same,Expected Concentration Achieved,[2],No
"Cc1ccc(Nc2nccc(N(C)c3ccc4c(C)n(C)nc4c3)n2)cc1S(N)(=O)=O [Pazopanib, 5-[[4-[(2,3-dimethyl-2H-indazol-6-yl)methylamino]-2-pyrimidinyl]amino]-2-methylbenzenesulfonamide monohydrochloride]",solubility,"Aqueous solubility; aqueous solution with 0.1% polysorbate-20, aqueous with cosolvent or surfactant or cyclodextrin",0.1 µg/mL
same,solubility in phosphate buffered saline,Aqueous solubility; neutral pH,insoluble
same,viscosity,[3]; 2.2:1 molar ratio CAPTISOL,at least 5 centipoise
same,water content,[3]; 5:1 CAPTISOL,approximately 0.5 g/mL
"CCN(CC)CCNC(=O)c1c(C)[nH]c(/C=C2\C(=O)Nc3ccc(F)cc32)c1C.O=C(O)CC(O)C(=O)O [Sunitinib, Butanedioic acid, hydroxy-, (2S)-, compound with N-[2-(diethylamino)ethyl]-5-[(Z)-(5-fluoro-1,2-dihydro-2-oxo-3H-indol-3-ylidine)methyl]-2,4-dimethyl-1H-pyrrole-3-carboxamide (1:1)]",measured diffusion coefficient,[4],3.3e-7 cm^2/s
same,times lower than the predicted single molecule diffusion coefficient,[4],20 times
same,solubility,"Aqueous solubility; aqueous solution, pH 4.1, aqueous buffer, read-out: solubility",> 25000 µg/mL
same,solubility,"Aqueous solubility; aqueous solution, pH 7.4, aqueous buffer, read-out: solubility",10 µg/mL
